Measured values from ChEMBL document CHEMBL1144231, “Discovery of pyrimidine benzimidazoles as Lck inhibitors: part I” (Bioorg Med Chem Lett, 2008).

Biological target: Tyrosine-protein kinase Lck (Homo sapiens, UniProt P06239)
Assay: Inhibition of Lck by lance assay

Chain of Tyrosine-protein kinase Lck (P06239 whole entry): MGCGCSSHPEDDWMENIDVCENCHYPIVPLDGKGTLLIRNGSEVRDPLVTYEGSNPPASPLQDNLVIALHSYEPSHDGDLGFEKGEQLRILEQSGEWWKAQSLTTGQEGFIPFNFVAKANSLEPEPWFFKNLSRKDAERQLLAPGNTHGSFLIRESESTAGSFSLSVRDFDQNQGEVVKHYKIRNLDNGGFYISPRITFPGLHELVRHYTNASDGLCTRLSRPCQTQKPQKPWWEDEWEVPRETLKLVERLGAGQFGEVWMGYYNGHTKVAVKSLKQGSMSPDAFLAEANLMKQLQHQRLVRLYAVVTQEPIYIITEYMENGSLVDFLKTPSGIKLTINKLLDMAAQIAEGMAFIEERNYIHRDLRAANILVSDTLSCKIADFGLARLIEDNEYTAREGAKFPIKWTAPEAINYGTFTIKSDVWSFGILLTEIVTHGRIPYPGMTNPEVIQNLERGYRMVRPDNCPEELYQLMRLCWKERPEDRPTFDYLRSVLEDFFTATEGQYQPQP

Row | IC50 [µM] | SMILES
1 | 1.36 | Cc1cc(C)c(Nc2nc3ccccc3n2-c2cc(N)ncn2)c(Br)c1
2 | 0.789 | CCN(CC)CCCCNc1cc(-n2c(Nc3c(C)cccc3Cl)nc3ccccc32)ncn1
3 | > 2.5 | Cc1cccc(Cl)c1Nc1nc2ccccc2n1-c1cc(Cl)ncn1
4 | 2.09 | Cc1cccc(Cl)c1Nc1nc2ccccc2n1-c1ccncn1
5 | > 2.5 | Cc1cccc(Cl)c1Nc1nc2ccccc2n1-c1cc(NN2CCOCC2)ncn1
6 | > 2.5 | Cc1cccc(Cl)c1Nc1nc2ccccc2n1-c1cc(N2CCOCC2)ncn1

Continued, compound first:

Row | SMILES | IC50 [µM]
7 | Cc1cccc(Cl)c1Nc1nc2ccccc2n1-c1cc(Nc2ccc(CCN3CCOCC3)cn2)ncn1 | 0.031
8 | Cc1cccc(Cl)c1Nc1nc2ccccc2n1-c1cc(N)ncn1 | 0.514
9 | Cc1cc(C)c(Nc2nc3ccccc3n2-c2cc(N)ncn2)c(C)c1 | 1.78
10 | Cc1cccc(Cl)c1Nc1nc2ccccc2n1-c1cc(Nc2ncnc(NCCN3CCOCC3)c2C)ncn1 | 0.119
11 | Cc1nc(Nc2cc(-n3c(Nc4c(C)cccc4Cl)nc4ccccc43)ncn2)cc(N2CCN(CCO)CC2)n1 | 0.025
12 | Cc1nc(NCCN2CCOCC2)cc(Nc2cc(-n3c(Nc4c(C)cccc4Cl)nc4ccccc43)ncn2)n1 | 0.005
13 | Cc1cccc(Cl)c1Nc1nc2ccccc2n1-c1cc(Nc2cc(CN3CCOCC3)ccn2)ncn1 | 0.014
